# The source made the active and inactive calls.
# Tests used:
# [1] = biological target: T1, Oxysterols receptor LXR-beta (Homo sapiens, UniProt P55055); type: functional, cell-based;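 note: agonist activity at LXR measured by a cell-based luminescence readout across a dose range, run as a counterscreen for daf-12 agonists; HEK293 cells with Gal4-LXR fusion and GAL4-driven luciferase reporter; potency for activation of Gal4-LXR reporter so compounds are agonists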
# T1 sequence (P55055 whole entry): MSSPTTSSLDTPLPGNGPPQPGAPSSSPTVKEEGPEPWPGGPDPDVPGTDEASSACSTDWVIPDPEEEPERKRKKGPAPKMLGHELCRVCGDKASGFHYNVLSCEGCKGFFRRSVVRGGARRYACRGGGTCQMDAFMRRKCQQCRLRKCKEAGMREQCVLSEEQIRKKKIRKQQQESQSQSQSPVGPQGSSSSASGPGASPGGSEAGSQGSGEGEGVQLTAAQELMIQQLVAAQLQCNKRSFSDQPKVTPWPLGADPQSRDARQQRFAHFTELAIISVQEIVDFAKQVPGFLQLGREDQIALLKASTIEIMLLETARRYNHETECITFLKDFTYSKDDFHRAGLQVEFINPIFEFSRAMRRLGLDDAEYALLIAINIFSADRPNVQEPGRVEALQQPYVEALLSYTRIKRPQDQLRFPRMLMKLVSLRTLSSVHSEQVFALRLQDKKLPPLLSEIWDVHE
# [2] = Luminescence Cell-Based Dose Response to Identify Activators of Luciferase Translation or Activity in H4-C Neuroglioblastoma Cells. [Related pubchem assays: 1829 (Project Summary), 1814 (Primary HTS)]; type: functional
# [3] = biological target: T2, Rac GTPase-activating protein 1 (Homo sapiens, UniProt Q9H0H5); test: MgcRacGAP GTPase-activating activity inhibitors, confirmation, biochemical, ADP Hunter fluorescence, primary and confirmatory (AID 624330); type: functional
# T2 sequence (Q9H0H5 whole entry): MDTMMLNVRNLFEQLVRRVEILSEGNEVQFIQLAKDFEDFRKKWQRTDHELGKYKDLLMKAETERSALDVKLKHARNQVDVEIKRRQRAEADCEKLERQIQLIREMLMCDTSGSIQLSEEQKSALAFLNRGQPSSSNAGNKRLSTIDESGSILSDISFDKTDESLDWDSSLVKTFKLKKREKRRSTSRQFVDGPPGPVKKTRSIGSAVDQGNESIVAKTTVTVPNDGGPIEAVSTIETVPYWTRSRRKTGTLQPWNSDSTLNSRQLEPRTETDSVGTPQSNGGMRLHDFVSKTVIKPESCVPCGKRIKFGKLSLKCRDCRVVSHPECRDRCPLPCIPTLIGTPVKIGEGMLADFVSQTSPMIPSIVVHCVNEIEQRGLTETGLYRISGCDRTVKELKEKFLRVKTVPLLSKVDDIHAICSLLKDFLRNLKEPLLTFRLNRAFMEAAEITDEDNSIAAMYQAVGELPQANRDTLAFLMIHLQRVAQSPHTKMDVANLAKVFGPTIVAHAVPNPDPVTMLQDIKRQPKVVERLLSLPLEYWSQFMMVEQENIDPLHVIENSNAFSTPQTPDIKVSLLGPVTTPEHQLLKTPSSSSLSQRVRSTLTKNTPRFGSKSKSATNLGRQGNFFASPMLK
# H4 = test: Luminescence Cell-Based Dose Response HTS to Identify Activators of 5'UTR Stem-Loop Driven Prion Protein mRNA Translation in H4 Neuroglioblastoma Cells. [Related pubchem assays: 1829 (Project Summary), 1814 (Primary HTS)]; type: functional; settings: Homo sapiens
# [4] = Luminescence Cell-Based Dose Confirmation to Identify Activators of 5'UTR Stem-Loop Driven Alpha-Synuclein mRNA Translation in H4 Neuroglioblastoma Cells. [Related pubchem assays: 1829 (Project Summary), 1814 (Primary HTS)]; type: functional
# [5] = Luminescence Cell-Based Dose Response HTS to Identify Activators of Luciferase Translation or Activity in H4 […] Cells. [Related pubchem assays: 1829 (Project Summary), 1814 (Primary HTS)]; type: functional
# [6] = Luminescence Cell-Based Dose Response to Identify Activators of 5'UTR Stem-Loop Driven Prion Protein mRNA Translation in H4-C Neuroglioblastoma Cells. [Related pubchem assays: 1829 (Project Summary), 1814 (Primary HTS)]; type: functional
# [7] = biological target: Disintegrin and metalloproteinase domain-containing protein 17 (Homo sapiens, UniProt P78536); test: ADAM17 protease inhibitors, dose response, counter-screen for ADAM10 exosite inhibitor project, biochemical, quenched FRET substrate (AID 743253)
# Sequence of Disintegrin and metalloproteinase domain-containing protein 17 (P78536 whole entry, the tested form may be a part): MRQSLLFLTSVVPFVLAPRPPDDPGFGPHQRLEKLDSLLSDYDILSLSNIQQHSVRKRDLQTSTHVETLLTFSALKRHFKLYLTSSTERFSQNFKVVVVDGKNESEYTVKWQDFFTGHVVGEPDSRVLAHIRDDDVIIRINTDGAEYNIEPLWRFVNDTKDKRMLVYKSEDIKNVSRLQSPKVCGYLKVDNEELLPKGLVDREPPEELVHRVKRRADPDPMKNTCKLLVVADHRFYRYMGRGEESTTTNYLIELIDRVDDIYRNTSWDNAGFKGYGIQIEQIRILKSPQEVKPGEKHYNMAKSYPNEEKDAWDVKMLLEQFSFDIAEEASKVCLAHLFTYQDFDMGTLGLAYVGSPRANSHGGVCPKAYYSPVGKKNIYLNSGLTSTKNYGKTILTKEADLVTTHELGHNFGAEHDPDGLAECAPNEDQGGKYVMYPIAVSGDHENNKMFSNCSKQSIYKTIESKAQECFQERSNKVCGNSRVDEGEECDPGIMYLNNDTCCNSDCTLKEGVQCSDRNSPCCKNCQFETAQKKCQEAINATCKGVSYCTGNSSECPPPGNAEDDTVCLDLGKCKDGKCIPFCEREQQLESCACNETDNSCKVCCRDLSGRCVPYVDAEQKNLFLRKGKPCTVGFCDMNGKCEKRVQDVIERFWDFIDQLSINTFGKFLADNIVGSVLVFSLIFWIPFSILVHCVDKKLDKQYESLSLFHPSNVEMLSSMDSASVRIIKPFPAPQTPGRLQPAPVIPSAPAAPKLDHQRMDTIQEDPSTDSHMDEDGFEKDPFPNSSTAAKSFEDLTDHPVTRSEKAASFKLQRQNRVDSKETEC
# [8] = ADAM10 inhibitors, peptide cleavage, dose response, biochemical, QFRET (AID 743254);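 note: ADAM10 enzyme with the DM2 quenched FRET peptide as substrate; EDANS fluorescence gain as the protease cuts the substrate; inhibitor potency against ADAM10 proteolytic activity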
# [9] = Shn3 3'UTR reporter inhibitors, dose response, cell-based, Clone20 osteoblasts, firefly luciferase, cherry-picked (AID 624132); type: functional;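 note: firefly luciferase luminescence from reporter carrying the Shn3 3'UTR in osteoblasts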
# Protein Wnt-3a = Protein Wnt-3a (Mus musculus, UniProt P27467); test: Wnt3a-driven reporter signaling inhibition, dose response, selectivity assay for Gli-SUFU antagonist project, Wnt-LIGHT cells, luminescence (AID 651570); type: functional; settings: read-out: IC50_Mean;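 note: Wnt-LIGHT reporter cells stimulated with conditioned medium from Wnt3a-producing cells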
# Sequence of Protein Wnt-3a (P27467 whole entry, the tested form may be a part): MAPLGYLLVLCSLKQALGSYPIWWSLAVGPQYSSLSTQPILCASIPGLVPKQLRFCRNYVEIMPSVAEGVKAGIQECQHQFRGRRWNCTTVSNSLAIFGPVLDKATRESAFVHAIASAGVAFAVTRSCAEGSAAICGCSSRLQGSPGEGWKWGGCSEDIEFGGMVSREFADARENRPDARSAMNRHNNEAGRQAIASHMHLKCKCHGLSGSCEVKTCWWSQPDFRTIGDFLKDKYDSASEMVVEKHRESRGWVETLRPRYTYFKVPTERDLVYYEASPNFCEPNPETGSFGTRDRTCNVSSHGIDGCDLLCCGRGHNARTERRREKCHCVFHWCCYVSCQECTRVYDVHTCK
# [10] = inhibitors of HIV Env-driven cell fusion, dose response, cherry-pick (AID 652057); type: functional, cell-based
# INS1 = test: beta cell apoptosis inhibitors, cytokine rescue, dose response, luminescence, retest (AID 449756); type: functional, cell-based; settings: Rattus norvegicus;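 note: cell death triggered by IL-1 beta plus TNF-alpha plus IFN-gamma mixture; protective hits raise ATP signal compared with cytokine alone wells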
# [11] = HepG2 cell cytotoxicity, dose response, cytotoxicity control for Shn3 inhibitor project, CellTiter-Glo, cherry-picked (AID 624134); type: functional, cell-based
# [12] = ZM109 Env clade C HIV-1 fusion inhibitors, dose response, HeLa effector, CEM target cells, luciferase, cherry-pick (AID 652058); type: functional, cell-based
# [13] = inhibitors of clade B AD8 Env fusion, dose response, cell-based, cherry-pick (AID 652062); type: functional;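 note: luciferase signal from cell-cell fusion driven by HIV-1 clade B AD8 Env; potency is for inhibitors of fusion seen as a drop in luminescence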
# [14] = A cytotoxicity screen of small molecule inhibitors of the PhoP region in Salmonella typhi identified in the primary screen. [Related pubchem assays: 1850, 1864, 1985 ]; type: functional
# [15] = reduction of Shn3 3'UTR firefly luciferase signal, dose response, Schnurri-3 inhibitor project, cell-based, Clone20 osteoblasts, cherry-pick, set 2 (AID 720490); type: functional;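 note: actives lower the luminescence signal as inhibitors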
# [16] = CEM21 lymphoblast cell cytotoxicity, dose response, cytotoxicity control for viral fusion inhibitor project, CellTiter-Glo luminescence, cherry-picked (AID 652042); type: functional, cell-based;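 note: potency for signal decrease meaning cytotoxicity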
# [17] = control 3'UTR Renilla luciferase suppression, dose response, counter-screen for Shn3 inhibitor project, cell-based, Clone20-Shn3RL, cherry-picked (AID 624133); type: functional
# [18] = Late stage counterscreen for inhibitors of Trypanosoma brucei methionyl tRNA synthetase (MetRS): Luminescence-based cell-based high throughput dose response assay to identify compounds that are cytotoxic to Jurkat human T lymphocyte cells.; type: functional
compound,measurement,setting,value
CN1C(=O)/C(=C/C=C2\SCCN2C)N(C)C1=S,EC50,[1],> 67.6 µM (inactive)
same,EC50,[2],0.41 µM (active)
same,IC50,[3],20 µM (active)
same,EC50,H4,> 120 µM (inconclusive)
same,EC50,[4],0.766 µM (active)
same,EC50,[5],< 0.1 µM (active)
same,EC50,[6],0.383 µM (active)
C=CCN(c1ccccc1OC)S(=O)(=O)c1cccc(C(=O)OCC(=O)c2c[nH]c3ccccc23)c1,IC50,[7],> 69.5 µM (inactive)
same,IC50,[8],> 69.5 µM (inactive)
CCN(CC)c1ccc(NC(=O)COC(=O)CSc2ccc(Br)cc2C)cc1,IC50,[7],> 69.5 µM (inactive)
same,IC50,[8],> 7.72 µM (active)
CCCCOCCCNc1[nH]cnc2c3ccccc3nc1-2,AC50,[9],1.05 µM (active)
same,IC50,Protein Wnt-3a,0.843 µM (active)
same,AC50,[10],33.8 µM (active)
same,AC50,INS1,1.78 µM (active)
same,AC50,[11],22.9 µM (active)
same,AC50,[12],14.8 µM (active)
same,AC50,[13],5.02 µM (active)
same,EC50,[14],> 50 µM (active)
same,AC50,[15],1.48 µM (active)
same,AC50,[16],46.3 µM (active)
same,AC50,[17],10.9 µM (active)
O=C(NCc1nc2ccccc2[nH]1)C1=C[C@H](c2ccc(Br)cc2)C[C@H](OCc2ccc(CO)cc2)O1,IC50,[18],81.3 µM (inactive)

# — ChEMBL document CHEMBL1201862, “PubChem BioAssay data set” (2004)
